The target of one experiment is T1, human recombinant COX-2 (Homo sapiens, UniProt P35354).
T1 construct: purchased Sigma-Aldrich
T1 sequence (P35354 18-604): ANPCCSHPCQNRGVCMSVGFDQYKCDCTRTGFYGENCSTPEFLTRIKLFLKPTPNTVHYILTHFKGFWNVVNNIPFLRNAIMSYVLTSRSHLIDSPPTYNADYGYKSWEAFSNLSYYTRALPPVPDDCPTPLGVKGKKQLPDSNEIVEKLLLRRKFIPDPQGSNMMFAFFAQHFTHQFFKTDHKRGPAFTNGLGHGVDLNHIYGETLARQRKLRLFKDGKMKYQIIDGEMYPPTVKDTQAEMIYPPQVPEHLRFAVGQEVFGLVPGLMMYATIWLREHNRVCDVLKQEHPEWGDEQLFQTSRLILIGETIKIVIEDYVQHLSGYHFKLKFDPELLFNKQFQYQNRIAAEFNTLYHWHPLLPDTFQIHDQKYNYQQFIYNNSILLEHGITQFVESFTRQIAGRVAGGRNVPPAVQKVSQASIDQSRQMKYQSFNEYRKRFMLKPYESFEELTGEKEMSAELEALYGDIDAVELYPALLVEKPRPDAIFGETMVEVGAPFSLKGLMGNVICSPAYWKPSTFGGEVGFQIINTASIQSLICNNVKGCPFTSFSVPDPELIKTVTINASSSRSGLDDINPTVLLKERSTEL
Nature of the experiment: COX-2 in vitro enzymatic assay (PGE2 ELISA). It counts as biochemical. Conditions: for inhibition at 20 µM: compound at 20 μM. As to the method: (§1) The inhibitory activity of compounds was tested using in vitro enzymatic assay. Ovine COX-1 (1 unit/reaction) or human recombinant COX-2 (0.5 unit/reaction; both enzymes Sigma-Aldrich, USA) was added to 180 µL of 100 mM Tris buffer (pH 8.0), containing 5 μM porcine hematin, 18 mM L-epinephrine, and 50 μM Na2EDTA. Ten µL of tested compound dissolved in DMSO or pure DMSO (as a blank) were added to the reaction.
(§2) Sigma-Aldrich, USA) was used as a reference inhibitor. After 5 min incubation at room temperature, reaction was initiated by 5 µL of arachidonic acid (10 µM) and incubated 20 min in 37°C. Then the reaction was stopped by 20 µL of formic acid (10% v/v). The concentration of prostaglandin E2 (PGE2) was measured with Prostaglandin E2 ELISA kit (Enzo Life Sciences, USA). Reaction mixture was diluted 1:15 in assay buffer (provided in the kit) and incubated according to the manufacturer instructions.
(§3) The concentration of PGE2 produced during the reaction was estimated according to absorbance […]
(§4) inhibitory activity was calculated as percentual inhibition of PGE2 production compared to blank. At first, the inhibitory activity of compounds was tested at 20 µM to see if there is any activity. IC50 […]
(§5) of COX-2. The level of percentual inhibition was chosen based on the percentual inhibition caused by […]
(§6) All the experiments were carried out in duplicates and repeated at least two times. To test whether increasing substrate concentration influences the activity of […]
(§7) reference compound. The inhibitory activity was calculated as percentual inhibition of PGE2 production compared to blank with respective concentration of AA. […]
Background: In an ELISA, binding on a coated surface is turned into a signal by an enzyme label.

Another experiment has as its target T2, Ovine COX-1 (Ovis aries, UniProt P05979).
T2 construct: purchased Sigma-Aldrich
T2 sequence (P05979 25-600): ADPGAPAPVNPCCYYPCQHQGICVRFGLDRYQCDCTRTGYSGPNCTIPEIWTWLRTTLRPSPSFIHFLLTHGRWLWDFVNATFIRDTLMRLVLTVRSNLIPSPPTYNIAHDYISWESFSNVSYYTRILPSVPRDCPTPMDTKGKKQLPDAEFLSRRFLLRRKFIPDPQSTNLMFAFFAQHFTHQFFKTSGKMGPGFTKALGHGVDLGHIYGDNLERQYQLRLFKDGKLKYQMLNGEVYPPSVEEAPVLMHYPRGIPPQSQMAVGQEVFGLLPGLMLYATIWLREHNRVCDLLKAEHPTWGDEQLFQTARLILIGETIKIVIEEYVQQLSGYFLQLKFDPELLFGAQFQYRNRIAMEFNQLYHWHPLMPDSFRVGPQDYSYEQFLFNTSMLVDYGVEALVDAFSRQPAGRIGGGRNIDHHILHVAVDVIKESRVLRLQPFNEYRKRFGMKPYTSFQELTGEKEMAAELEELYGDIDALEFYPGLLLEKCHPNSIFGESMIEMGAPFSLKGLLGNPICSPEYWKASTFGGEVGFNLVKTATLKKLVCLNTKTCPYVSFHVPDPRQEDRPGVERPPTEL
Nature of the experiment: COX-1 in vitro enzymatic assay (PGE2 ELISA). The settings on record: compound at 20 μM. It counts as biochemical. As to the method: as §1, §2, §3, §4, §5, §6, §7

Broadly, the inhibition is the change of the read-out against control, counted positive when it falls. In general, IC50 refers to the midpoint of a concentration-inhibition curve.

Regarding `COc1ccc(CNc2nc(Cl)nc3cc(-c4ccc(F)cc4)ccc23)cc1` [6b], the inhibition at 20 µM was 27.6% on human recombinant COX-2 and 26.6% against Ovine COX-1.

With `CC(C)(C)c1ccc(Nc2nc(/C=C/c3ccccc3)nc3ccccc23)cc1` [3m], the inhibition at 20 µM on human recombinant COX-2 is 9.92%; against Ovine COX-1, 14%.

`COc1ccc(Nc2nc(/C=C/c3ccccc3)nc3ccccc23)cc1` [3c]: the IC50 on human recombinant COX-2 worked out at 37.3 ± 9.36 µM. Besides, the values for the inhibition at 20 µM at human recombinant COX-2 and against Ovine COX-1 were 2.64% and 95.3%, respectively.

`COc1ccc(CNc2nc(N3CCOCC3)nc3cc(-c4ccc(OC)cc4)ccc23)cc1` [7a]: the inhibition at 20 µM at human recombinant COX-2 was 0.8%; against Ovine COX-1, -3.35%.

Consider `Fc1ccc(CNc2nc(Cl)nc3cc(-c4cccs4)ccc23)cc1F` [6e], for which, on human recombinant COX-2, the IC50 is above 50 µM. Besides, the “inhibition of COX-2 (in words)” value at human recombinant COX-2 (at 50 μM) was “did not inhibit”. In addition, the inhibition at 20 µM amounted to 39.9% on human recombinant COX-2 and 96.5% against Ovine COX-1.

As for `FC(F)(F)c1cc(Nc2nc(/C=C/c3ccccc3)nc3ccccc23)cc(C(F)(F)F)c1` [3t], the inhibition at 20 µM stood at 10.8% on human recombinant COX-2 and 20.8% at Ovine COX-1.

Consider `CCN(CC)c1nc(NCc2ccc(F)c(F)c2)c2ccc(-c3ccc(OC)cc3)cc2n1` [7n], for which the inhibition at 20 µM at human recombinant COX-2 was 14.6%; against Ovine COX-1, 18%.

The values above are taken from PMC8040043, “Synthesis, Inhibitory Activity, and In Silico Modeling of Selective COX-1 Inhibitors with a Quinazoline Core” (ACS Medicinal Chemistry Letters, 2021).
